Measurements taken from patent publication US8173689B2 (Novartis AG, priority 2006, dated 2012).
Read-outs that look alike come from different tables or passages of the source.

Assays:
kinase domain of cKIT = biological target: T1, kinase domain of cKIT (Homo sapiens, UniProt P10721); assay: Inhibition of cKIT kinase signaling in an in vitro biochemical assay (alphascreen); details: tested at about 1 μM, read-out: cKit percent inhibition
T1 construct: The kinase domain of cKIT was assayed in 50 mM Hepes; purchased Upstate 14-559

[1] = biological target: T2, cytoplasmic domain of the human CSF-1R (Homo sapiens, UniProt P07333); assay: In vitro kinase assay for colony stimulating factor-1 receptor (AlphaScreen); format: biochemical; details: tested at about 1 μM, read-out: CSF-1R percent inhibition
T2 construct: Recombinant protein corresponding to the cytoplasmic domain of the human CSF-1R; purchased Invitrogen Corporation, Carlsbad, Calif; PV3249
T2 sequence (P07333 539-972 limits assumed): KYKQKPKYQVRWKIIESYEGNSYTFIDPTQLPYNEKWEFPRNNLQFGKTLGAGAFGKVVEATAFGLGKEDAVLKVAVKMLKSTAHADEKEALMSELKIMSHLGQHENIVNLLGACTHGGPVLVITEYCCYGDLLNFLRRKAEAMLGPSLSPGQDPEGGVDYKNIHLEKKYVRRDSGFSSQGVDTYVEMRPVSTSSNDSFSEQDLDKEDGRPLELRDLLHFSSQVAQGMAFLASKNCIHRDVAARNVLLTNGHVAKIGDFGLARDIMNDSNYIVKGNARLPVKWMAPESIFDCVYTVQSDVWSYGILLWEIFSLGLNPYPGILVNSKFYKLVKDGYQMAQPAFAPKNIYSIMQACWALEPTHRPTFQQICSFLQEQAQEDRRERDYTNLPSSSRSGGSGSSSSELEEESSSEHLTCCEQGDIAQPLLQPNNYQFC
Method in brief: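 Test compounds, serially diluted threefold starting at 25 μM, were mixed with Hepes buffer (pH 7.5, Mg2+/Mn2+, DTT, BSA, Tween 80) containing 1 μM ATP. Recombinant kinase was present at 4 nM. After stopping, beads were added and plates were read the next day by AlphaScreen.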

[2] = biological target: T3, full-length human CSF-1R receptor (Homo sapiens, UniProt P07333); assay: In vitro inhibition of CSF-1R receptor tyrosine phosphorylation in transfected HEK293H cells stimulated with MCSF; format: cell-based; details: HEK293-H, tested at about 1 μM, read-out: pCSF1R percent inhibition
T3 construct: transfected with the full-length human CSF-1R receptor cloned in house; expressed in transfected cells; host or cells: HEK293H (Invitrogen Cat. #11631017)
Method: The lysate was then transferred to total CSF-1R antibody coated 96-well plates that had already been blocked with 3% Blocker A from Mesoscale discovery (MSD) for 2 hours and washed afterwards. Lysates were incubated overnight at 4° C. and the plates were then washed 4× with MSD Tris Wash Buffer. […] The plates were read on the Sector 6000 instrument (MSD). Raw data was imported in Abase and EC50s calculated with XL-fit data analysis software.

kinase domain of PDGFRβ = biological target: T4, kinase domain of PDGFRβ (Homo sapiens, UniProt P09619); assay: Inhibition of PDGFRb kinase signaling in an in vitro biochemical assay (alphascreen); details: tested at about 1 μM, read-out: PDGFRβ percent inhibition
T4 construct: The kinase domain of PDGFRβ was assayed in 50 mM Hepes; purchased Invitrogen P3082

[3] = tested on: MNFS60 (murine AML cells); assay: Cell viability assay in MCSF dependent MNFS60 cells (Cell Titer Glo); format: cell-based; details: Mus musculus, tested at about 1 μM, read-out: M-NFS-60 CP percent inhibition
Method in brief: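 Three-fold serial compound dilutions, prepared in DMSO at 500× the final level, were applied alongside MCSF (final 10 ng/ml). Incubation lasted 72 hrs (37° C., 5% CO2) before CellTiter-Glo addition. Triplicate points were curve-fitted for EC50.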

T4 sequence (P09619 600-962 limits assumed): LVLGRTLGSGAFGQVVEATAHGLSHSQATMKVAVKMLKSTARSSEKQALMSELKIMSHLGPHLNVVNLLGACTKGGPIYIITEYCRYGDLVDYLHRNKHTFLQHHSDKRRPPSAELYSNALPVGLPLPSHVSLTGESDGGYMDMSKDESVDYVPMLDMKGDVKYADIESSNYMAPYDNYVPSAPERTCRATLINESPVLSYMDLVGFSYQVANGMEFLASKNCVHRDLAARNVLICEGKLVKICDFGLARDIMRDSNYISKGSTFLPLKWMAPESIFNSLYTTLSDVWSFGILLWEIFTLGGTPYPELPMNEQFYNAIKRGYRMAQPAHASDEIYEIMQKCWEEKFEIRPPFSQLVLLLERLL
T1 sequence (P10721 589-937 limits assumed): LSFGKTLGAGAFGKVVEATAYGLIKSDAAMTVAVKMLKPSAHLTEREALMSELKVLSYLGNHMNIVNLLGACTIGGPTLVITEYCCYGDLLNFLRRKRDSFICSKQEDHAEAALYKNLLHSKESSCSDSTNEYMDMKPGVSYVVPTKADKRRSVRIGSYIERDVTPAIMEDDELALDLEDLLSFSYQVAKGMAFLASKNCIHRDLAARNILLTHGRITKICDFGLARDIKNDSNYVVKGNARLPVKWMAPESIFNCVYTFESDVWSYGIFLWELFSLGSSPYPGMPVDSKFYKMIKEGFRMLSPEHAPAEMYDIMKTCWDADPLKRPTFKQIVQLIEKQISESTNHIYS
T3 sequence (P07333 20-972): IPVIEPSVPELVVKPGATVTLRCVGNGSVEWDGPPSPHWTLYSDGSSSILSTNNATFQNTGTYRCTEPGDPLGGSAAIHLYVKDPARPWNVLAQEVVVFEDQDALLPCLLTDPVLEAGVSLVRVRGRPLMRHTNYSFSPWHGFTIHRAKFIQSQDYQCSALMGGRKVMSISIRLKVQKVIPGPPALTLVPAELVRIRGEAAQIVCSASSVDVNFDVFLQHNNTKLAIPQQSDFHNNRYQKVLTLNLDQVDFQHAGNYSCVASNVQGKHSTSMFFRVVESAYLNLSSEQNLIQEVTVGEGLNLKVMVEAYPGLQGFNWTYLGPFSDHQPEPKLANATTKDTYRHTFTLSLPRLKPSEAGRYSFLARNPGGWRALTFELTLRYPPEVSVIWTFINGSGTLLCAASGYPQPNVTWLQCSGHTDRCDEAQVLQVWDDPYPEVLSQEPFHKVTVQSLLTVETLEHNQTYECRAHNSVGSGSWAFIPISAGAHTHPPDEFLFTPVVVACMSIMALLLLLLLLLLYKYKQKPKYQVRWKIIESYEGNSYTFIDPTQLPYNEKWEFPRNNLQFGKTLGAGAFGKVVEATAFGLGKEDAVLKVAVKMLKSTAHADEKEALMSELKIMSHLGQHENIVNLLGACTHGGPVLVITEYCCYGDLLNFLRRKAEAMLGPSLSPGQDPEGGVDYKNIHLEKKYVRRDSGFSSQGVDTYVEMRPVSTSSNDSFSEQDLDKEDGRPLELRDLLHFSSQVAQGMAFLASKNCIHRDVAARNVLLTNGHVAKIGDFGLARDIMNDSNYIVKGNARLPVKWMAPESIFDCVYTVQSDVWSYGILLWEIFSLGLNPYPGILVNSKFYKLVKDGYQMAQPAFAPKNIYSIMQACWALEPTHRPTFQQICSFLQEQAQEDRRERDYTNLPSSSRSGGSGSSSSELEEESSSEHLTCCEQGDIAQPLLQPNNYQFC

Row | inhibition at 1 µM (kinase domain of cKIT; compounds of Table 3) [%] | inhibition at 1 µM ([1]; compounds of Table 3) [%] | inhibition at 1 µM ([2]; compounds of Table 3) [%] | inhibition at 1 µM (kinase domain of PDGFRβ; compounds of Table 3) [%] | inhibition at 1 µM (kinase domain of cKIT) [%] | inhibition at 1 µM [1] [%] | inhibition at 1 µM ([2]; HEK293H cells) [%] | inhibition at 1 µM (kinase domain of PDGFRβ) [%] | Structure (SMILES) | inhibition at 1 µM ([3]; compounds of Table 3) [%] | inhibition at 1 µM ([3]; MNFS60 cells) [%]
1 | 45 | 100 | 93 | 11 |  |  |  |  | CNC(=O)c1cc(Oc2ccc3nc(Nc4cccc(OC)c4)sc3c2)ccn1 [Compound 32] | 65 | 
2 | 24 | 100 | 88 | 19 |  |  |  |  | CNC(=O)c1cc(Oc2ccc3nc(NCc4ccncc4)sc3c2)ccn1 [Compound 139] | 46 | 
3 | 20 | 100 | 99 | 30 |  |  |  |  | CCc1[nH]c(-c2cc(Oc3ccc4nc(N[C@@H]5CCCC[C@H]5O)sc4c3)ccn2)nc1C [Cmpd 162, (1R,2R)-2-(6-(2-(5-ethyl-4-methyl-1H-imidazol-2-yl)pyridin-4-yloxy)benzo[d]thiazol-2-ylamino)cyclohexanol] | 100 | 
4 | 32 | 100 | 99 | 39 |  |  |  |  | C[C@H](Nc1nc2ccc(Oc3ccnc(-c4cnn(C)c4)c3)cc2s1)C1CCCCC1 [Cmpd 163, (S)-N-(1-cyclohexylethyl)-6-(2-(1-methyl-1H-pyrazol-4-yl)pyridin-4-yloxy)benzo[d]thiazol-2-amine] | 100 | 
5 | 24 | 100 | 98 | 6 |  |  |  |  | O[C@@H]1CCCC[C@H]1Nc1nc2ccc(Oc3ccnc(-c4cnn(CCF)c4)c3)cc2s1 [Example 259, (1R,2R)-2-(6-(2-(1-(2-fluoroethyl)-1H-pyrazol-4-yl)pyridin-4-yloxy)benzo[d]thiazol-2-ylamino)cyclohexanol] | 100 | 
6 | 56 | 100 | 74 | 28 |  |  |  |  | c1ccc2c(Oc3ccc4nc(N[C@@H]5C[C@H]6CC[C@@H]5C6)sc4c3)ccnc2c1 [Example 251, N-((1R,2R,4S)-bicyclo[2.2.1]heptan-2-yl)-6-(quinolin-4-yloxy)benzo[d]thiazol-2-amine] | 80 | 
7 |  |  |  |  | 17 | 99 | 93 | 18 | CNC(=O)c1cc(Oc2ccc3nc(NCc4cccnc4)sc3c2)ccn1 [Compound 154, 4-{2-[(Pyridin-3-ylmethyl)-amino]-benzothiazol-6-yloxy}-pyridine-2-carboxylic acid methylamide] |  | 48
8 |  |  |  |  | 93 | 99 | 97 |  | CNC(=O)c1cc(Oc2ccc3nc(NCc4cccc(OC)c4OC)oc3c2)ccn1 [Compound 91, 4-[2-(2,3-Dimethoxy-benzyl-amino)-benzooxazol-6-yloxy]-pyridine-2-carboxylic acid methylamide] |  | 87
9 |  |  |  |  | 98 | 100 | 96 |  | CNC(=O)c1cc(Oc2ccc3nc(NCc4ccccc4N4CCOCC4)oc3c2)ccn1 [Compound 88, 4-[2-(2-Morpholin-4-yl-benzylamino)-benzooxazol-6-yloxy]-pyridine-2-carboxylic acid methylamide] |  | 100
10 |  |  |  |  |  | 100 | 92 | 88 | CNC(=O)c1cc(Oc2ccc3nc(NC[C@@H]4C[C@H]5CC[C@@H]4C5(C)C)oc3c2)ccn1 [Compound 15, 4-{2-[((1S,2R,4R)-7,7-Dimethyl-bicyclo[2.2.1]hept-2-ylmethyl)-amino]-benzooxazol-6-yloxy}-pyridin-2-carboxylic acid methylamide] |  | 97
11 |  |  |  |  |  | 99 | 88 | 98 | CNC(=O)c1cc(Oc2ccc3nc(Nc4ccc(OC)cc4OC)oc3c2)ccn1 [Compound 28, 4-[2-(2,4-Dimethoxy-phenyl-amino)-benzooxazol-6-yl-oxy]-pyridine-2-carboxylic acid methylamide] |  | 98
12 |  |  |  |  |  | 100 | 93 | 22 | CC(=O)Nc1cc(Oc2ccc3nc(NCc4ccccc4Cl)oc3c2)ccn1 [Compound 32, N-{4-[2-(2-Chloro-benzylamino)-benzooxazol-6-yloxy]-pyridin-2-yl}-acetamide] |  | 70
13 |  |  |  |  |  | 100 | 74 | 35 | CNC(=O)c1cc(Oc2ccc3nc(N[C@H](C)c4cccc5ccccc45)oc3c2)ccn1 [Compound 18, 4-[2-((R)-1-Naphthalen-1-yl-ethylamino)-benzooxazol-6-yloxy]-pyridine-2-carboxylic acid methylamide] |  | 91
14 |  |  |  |  | 18 | 100 | 79 |  | CNC(=O)c1cc(Oc2ccc3nc(N[C@H](C)c4ccccc4OC)oc3c2)ccn1 [Compound 31, 4-{2-[(R)-1-(2-Methoxy-phenyl)-ethylamino]-benzooxazol-6-yloxy}-pyridine-2-carboxylic acid methylamide] |  | 57
15 |  |  |  |  |  | 99 | 65 | 89 | CC(=O)Nc1cc(Oc2ccc3nc(NCC4CCCCC4)oc3c2)ccn1 [Compound 34, N-{4-[2-(Cyclohexylmethyl-amino)-benzooxazol-6-yloxy]-pyridin-2-yl}-acetamide] |  | 68
16 |  |  |  |  |  | 99 | 97 | 12 | CNC(=O)c1cc(Oc2ccc3nc(NCc4cccc(Cl)c4)oc3c2)ccn1 [Compound 42, 4-[2-(3-Chloro-benzylamino)-benzooxazol-6-yloxy]-pyridine-2-carboxylic acid methylamide] |  | 100
17 |  |  |  |  |  | 99 | 75 | 65 | CNC(=O)c1cc(Oc2ccc3nc(N[C@H]4C[C@H]5C[C@@H]([C@@H]4C)C5(C)C)oc3c2)ccn1 [Compound 13, 4-[2-((1S,2S,3S,5R)-2,6,6-Trimethyl-bicyclo[3.1.1]hept-3-ylamino)-benzooxazol-6-yloxy]-pyridin-2-carboxylic acid methylamide] |  | 76
18 |  |  |  |  |  | 99 | 79 | 35 | CNC(=O)c1cc(Oc2ccc3nc(NC4CCCC(C)C4)oc3c2)ccn1 (stereo not shown) [Compound 10, 4-[2-(3-Methyl-cyclohexyl-amino)-benzooxazol-6-yloxy]-pyridine-2-carboxylic acid methylamide] |  | 62
19 |  |  |  |  | 79 | 99 | 98 |  | CNC(=O)c1cc(Oc2ccc3nc(NCc4ccccc4N(C)C)oc3c2)ccn1 [Compound 85, 4-[2-(2-Dimethylamino-benzylamino)-benzooxazol-6-yloxy]-pyridine-2-carboxylic acid methylamide] |  | 100
20 |  |  |  |  |  | 99 | 96 | 28 | CNC(=O)c1cc(Oc2ccc3nc(NCc4ccc(Cl)cc4)oc3c2)ccn1 [Compound 27, 4-[2-(4-Chloro-benzylamino)-benzooxazol-6-yloxy]-pyridine-2-carboxylic acid methylamide] |  | 97
21 |  |  |  |  |  | 99 | 65 | 0 | CNC(=O)c1cc(Oc2ccc3nc(NCC4CCCCC4)oc3c2)ccn1 [Compound 21, 4-[2-(Cyclohexylmethyl-amino)-benzooxazol-6-yloxy]-pyridine-2-carboxylic acid methylamide] |  | 55
